This note sets out measurements from ChEMBL document CHEMBL2401618 (Eur J Med Chem, 2013).

For data set [1], the system named is Plasmodium falciparum. Put plainly: Antiplasmodial activity against chloroquine-resistant Plasmodium falciparum FcB1/Columbia infected in human erythrocytes assessed as parasite growth inhibition at 50 ug/ml after 24 hrs by [3H]-hypoxanthine incorporation assay relative to control. In kind it is functional. Conditions: read-out: GI.
Data set [2] in a line: Safety index, ratio of IC50 for african green monkey Vero cells to IC50 for chloroquine-resistant Plasmodium falciparum FcB1/Columbia infected in human erythrocytes. In kind it is toxicity, cell-based. Conditions: read-out: Ratio IC50.
Data set [3] concerns Trypanosoma brucei brucei. Put plainly: Antitrypanosomal activity against bloodstream stage of Trypanosoma brucei brucei 93 assessed as parasite growth inhibition at 10 ug/ml after 72 hrs by resazurin reduction assay relative to control. In kind it is functional. Conditions: Trypanosoma brucei, 93, 72 h; read-out: GI. Background: The colour change of resazurin is a common sign of viable cells or microbes.

A short description of data set [4]: Safety index, ratio of IC50 for african green monkey Vero cells to IC50 for bloodstream stage of Trypanosoma brucei brucei 93. In kind it is toxicity, cell-based. Conditions: read-out: Ratio IC50.
In another data set the test system is Leishmania donovani. Put plainly: Leishmanicidal activity against promastigote stage of Leishmania donovani LV9 assessed as cell viability by MTT assay. In kind it is functional, organism-based.
Data set [5] relates to Plasmodium falciparum. Put plainly: Antiplasmodial activity against chloroquine-resistant Plasmodium falciparum FcB1/Columbia infected in human erythrocytes assessed as parasite growth inhibition at 10 ug/ml after 24 hrs by [3H]-hypoxanthine incorporation assay relative to control. In kind it is functional. Conditions: read-out: GI.
In data set [6] the test system is Plasmodium falciparum. Kind of data set: Antiplasmodial activity against chloroquine-resistant Plasmodium falciparum FcB1/Columbia infected in human erythrocytes assessed as parasite growth inhibition after 24 hrs by [3H]-hypoxanthine incorporation assay. In kind it is functional, organism-based.
Data set [7] relates to Trypanosoma brucei brucei. Put plainly: Antitrypanosomal activity against bloodstream stage of Trypanosoma brucei brucei 93 assessed as parasite growth inhibition at 1 ug/ml after 72 hrs by resazurin reduction assay relative to control. In kind it is functional. Conditions: Trypanosoma brucei, 93, 72 h; read-out: GI.
The test system of the next data set is Vero. Kind of data set: Cytotoxicity against african green monkey Vero cells assessed as growth inhibition after 72 hrs by MTS assay. As to conditions: Chlorocebus sabaeus. In kind it is cell-based.
Data set [8] in a line: Safety index, ratio of IC50 for african green monkey Vero cells to IC50 for promastigote stage of Leishmania donovani LV9. In kind it is toxicity, cell-based. As to conditions: read-out: Ratio IC50.
Data set [9] relates to Trypanosoma brucei brucei. Put plainly: Antitrypanosomal activity against bloodstream stage of Trypanosoma brucei brucei 93 assessed as parasite growth inhibition at 50 ug/ml after 72 hrs by resazurin reduction assay relative to control. In kind it is functional. Conditions: Trypanosoma brucei, 93, 72 h; read-out: GI.
Data set [10] in a line: Cytotoxicity against african green monkey Vero cells assessed as growth inhibition at 10^-5 M after 72 hrs by MTS assay relative to control. Conditions: chlorocebus sabaeus, read-out: GI. In kind it is cell-based. A general note: Tetrazolium assays rely on reduction of a dye to a coloured formazan, in cell work by metabolically active cells.
The subject of data set [11] is Plasmodium falciparum. Put plainly: Antiplasmodial activity against chloroquine-resistant Plasmodium falciparum FcB1/Columbia infected in human erythrocytes assessed as parasite growth inhibition at 1 ug/ml after 24 hrs by [3H]-hypoxanthine incorporation assay relative to control. In kind it is functional. As to conditions: read-out: GI.
For data set [12], the system named is Trypanosoma brucei brucei. Put plainly: Antitrypanosomal activity against bloodstream stage of Trypanosoma brucei brucei 93 assessed as parasite growth inhibition after 72 hrs by resazurin reduction assay. As to conditions: Trypanosoma brucei, 93, 72 h. In kind it is functional, organism-based.

On to `CC(C)=CCC[C@]1(C)[C@@H](CC=C(C)C)C[C@]2(CC=C(C)C)C(=O)[C@@]1(CC=C(C)C)C(=O)C(C(=O)c1ccc(OCCC3OCCO3)c(OCCC3OCCO3)c1)=C2O`, for which the inhibition of growth at 50 µg/mL stood at 99.6% with Plasmodium falciparum [1] and 95% in data set [9]. The selectivity ratio in [2] was 20.8; in data set [4], 22.8; in [8] it was 1.2. The inhibition of growth at 10 µg/mL was found to be 96.7% in [3] and 94.1% in the data set with Plasmodium falciparum [5]. In addition, the IC50 in the data set with Leishmania donovani came to 34.3 µM; with Plasmodium falciparum [6], 2 µM; with Vero it was 41.6 µM; in [12], 1.83 µM. Besides, the inhibition of growth at 1 µg/mL in data set [7] amounted to 44.8%; in the data set on Plasmodium falciparum [11] it was 17.6%. In addition, the inhibition at 72 h, 10 µM in [10] stood at 29%.

As for `CC(=O)Oc1cc(C(=O)C2=C(O)[C@]3(CC=C(C)C)C[C@H](CC=C(C)C)[C@@](C)(CCC=C(C)C)[C@](CC=C(C)C)(C2=O)C3=O)ccc1O`, the figures for the inhibition of growth at 50 µg/mL (with Plasmodium falciparum [1]; in data set [9]) were 99.1% and 95.5%, respectively. The selectivity ratio turned out to be 0.9 in [2], 2.3 in data set [4] and 0.8 in data set [8]. In addition, the inhibition of growth at 10 µg/mL in [3] came out at 97.3%; in the data set on Plasmodium falciparum [5] it was 96.7%. Also, the IC50 amounted to 5.04 µM in the data set on Leishmania donovani, 4.36 µM in the data set on Plasmodium falciparum [6], 4.12 µM in the data set on Vero and 1.78 µM in data set [12]. The inhibition of growth at 1 µg/mL stood at 47% in data set [7] and 9% in the data set with Plasmodium falciparum [11].

For `CC(C)=CCC[C@]1(C)[C@@H](CC=C(C)C)C[C@]2(CC=C(C)C)C(=O)[C@@]1(CC=C(C)C)C(=O)C(C(=O)c1ccc(OC(=O)C(C)(C)C)c(OC(=O)C(C)(C)C)c1)=C2O`, the figures for the inhibition of growth at 50 µg/mL (with Plasmodium falciparum [1]; in data set [9]) were 0.5% and 96.4%, respectively. For the same compound, the values for the inhibition of growth at 10 µg/mL (in data set [3]; with Plasmodium falciparum [5]) were 91.2% and 27.2%, respectively. In addition, the selectivity ratio in data set [4] was 11.5; in [8] it was less than 1. In addition, the IC50 in the data set on Leishmania donovani was greater than 100 µM; in the data set with Vero, 100 µM; in data set [12], 8.66 µM. Besides, the figures for the inhibition of growth at 1 µg/mL (in data set [7]; with Plasmodium falciparum [11]) were 42.9% and 4.48%, respectively. Also, in [10], the inhibition at 72 h, 10 µM was 13%.

In the case of `COc1ccc(C(=O)C2=C(O)[C@]3(CC=C(C)C)C[C@H](CC=C(C)C)[C@@](C)(CCC=C(C)C)[C@](CC=C(C)C)(C2=O)C3=O)cc1O` [14-O-METHYL-GUTTIFERONE A], the inhibition of growth at 50 µg/mL turned out to be 98.9% in the data set with Plasmodium falciparum [1] and 92.8% in data set [9]. Moreover, the selectivity ratio in data set [2] came to 2.6; in [4], 8.1; in data set [8], 1.2. Further, the inhibition of growth at 10 µg/mL in data set [3] stood at 96.3%; in the data set with Plasmodium falciparum [5], 75.2%. Besides, the IC50 in the data set on Leishmania donovani stood at 9.4 µM; with Plasmodium falciparum [6], 4.46 µM; with Vero it was 11.5 µM; in [12], 1.42 µM. Also, the inhibition of growth at 1 µg/mL in [7] turned out to be 85.3%; in the data set with Plasmodium falciparum [11], 10.7%.

As for `CC(=O)Oc1ccc(C(=O)C2=C(O)[C@]3(CC=C(C)C)C[C@H](CC=C(C)C)[C@@](C)(CCC=C(C)C)[C@](CC=C(C)C)(C2=O)C3=O)cc1OC(C)=O`, the inhibition of growth at 50 µg/mL in the data set with Plasmodium falciparum [1] stood at 99.7%; in data set [9] it was 93.3%. In addition, the selectivity ratio in data set [2] was found to be 1.1; in data set [4], 1.3. The inhibition of growth at 10 µg/mL in data set [3] turned out to be 97.2%; in the data set on Plasmodium falciparum [5] it was 97.5%. Moreover, the half-maximal inhibitory concentration (IC50) with Plasmodium falciparum [6] stood at 3.63 µM; in the data set with Vero it was 3.77 µM; in data set [12] it was 2.95 µM. For the same compound, the inhibition of growth at 1 µg/mL is 38.5% in data set [7] and 14.9% in the data set with Plasmodium falciparum [11].

Consider `CCCC(=O)Oc1ccc(C(=O)C2=C(O)[C@]3(CC=C(C)C)C[C@H](CC=C(C)C)[C@@](C)(CCC=C(C)C)[C@](CC=C(C)C)(C2=O)C3=O)cc1OC(=O)CCC`, for which the inhibition of growth at 50 µg/mL in the data set on Plasmodium falciparum [1] was 99.7%; in [9] it was 94.9%. The selectivity ratio in [2] worked out at 1.6; in data set [4], 3; in data set [8] it was 0.6. The inhibition of growth at 10 µg/mL in [3] came to 96.2%; with Plasmodium falciparum [5], 96.5%. In addition, the concentration for half-maximal inhibition (IC50) worked out at 13.3 µM in the data set with Leishmania donovani, 5.06 µM in the data set with Plasmodium falciparum [6], 7.9 µM in the data set with Vero and 2.65 µM in data set [12]. Also, the inhibition of growth at 1 µg/mL in data set [7] is 35%; in the data set with Plasmodium falciparum [11], -0.82%.

Usually IC50 stands for the concentration that inhibits the measured activity by half.
